From patent US9242996B2 (Novartis AG, priority 2013, dated 2016)
pIC50: −log10 of the molar value.

The compounds below were run against T1, activated ERK2 (Homo sapiens (Human), UniProt P28482) (assay: Activated ERK2 kinase assay, ERK2 New conditions (AlphaScreen, ERKtide phosphorylation)). Conditions: 0.25 nM ERK2, 200 nM ERKtide peptide, 35 μM ATP, 30 min preincubation.
T1 sequence (P28482 whole entry): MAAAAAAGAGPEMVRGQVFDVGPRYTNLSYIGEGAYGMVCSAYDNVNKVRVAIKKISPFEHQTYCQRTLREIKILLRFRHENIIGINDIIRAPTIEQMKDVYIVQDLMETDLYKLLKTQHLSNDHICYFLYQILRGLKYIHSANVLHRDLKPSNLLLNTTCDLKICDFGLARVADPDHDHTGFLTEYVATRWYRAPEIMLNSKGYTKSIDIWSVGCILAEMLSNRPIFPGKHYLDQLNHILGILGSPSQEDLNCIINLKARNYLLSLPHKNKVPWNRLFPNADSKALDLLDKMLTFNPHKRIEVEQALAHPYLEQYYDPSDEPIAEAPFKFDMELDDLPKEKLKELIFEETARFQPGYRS
Format: biochemical
Method in brief: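 Read-out is AlphaScreen with anti-phospho-EGFR (Thr669) antibody after EDTA quench and overnight dark incubation. Reaction: 0.25 nM ERK2, 30 min compound preincubation, then 200 nM ERKtide plus 35 µM ATP for 2–3 h at ambient temperature, pH 7.5. IC50 by four-parameter fit.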
`C[C@@H](NC(=O)c1ccc(-c2cc(C3CCNC(=O)C3)cnc2N)cc1F)c1cccc(Cl)c1` (mixture of isomers) [Example 120, 4-(2-amino-5-(2-oxopiperidin-4-yl)pyridin-3-yl)-N-((R)-1-(3-chlorophenyl)ethyl)-2-fluorobenzamide] gave a pIC50 of 8.87.
`C[C@@H](NC(=O)c1ccc(-c2nc(C3CC3)cnc2N)cc1F)c1cc(F)cc(S(C)(=O)=O)c1` [Example 287, (R)-4-(3-amino-6-cyclo-propylpyrazin-2-yl)-2-fluoro-N-(1-(3-fluoro-5-(methylsulfonyl)phenyl)ethyl) benzamide] showed a pIC50 of 9.10.
`C[C@@H](NC(=O)c1ccc(-c2cc(C3CC3)cnc2N)cc1F)c1cc(F)cc(S(C)(=O)=O)c1` [Example 288, (R)-4-(2-amino-5-cyclo-propylpyridin-3-yl)-2-fluoro-N-(1-(3-fluoro-5-(methylsulfonyl)phenyl)ethyl) benzamide] showed a pIC50 of 8.69.
With `Nc1ncc(-c2cn[nH]c2)cc1-c1ccc(C(=O)N[C@H](CO)c2ccccc2)c(F)c1` [Example 290, (S)-4-(2-amino-5-(1H-pyrazol-4-yl)pyridin-3-yl)-2-fluoro-N-(2-hydroxy-1-phenylethyl) benzamide] the pIC50 was 8.76.
With `CC(C)n1cc(-c2cnc(N)c(-c3ccc(C(=O)N[C@H](CO)c4cccc(S(C)(=O)=O)c4)c(F)c3)c2)cn1` [Example 291, (S)-4-(2-amino-5-(1-isopropyl-1H-pyrazol-4-yl)pyridin-3-yl)-2-fluoro-N-(2-hydroxy-1-(3-(methylsulfonyl)phenyl)ethyl) benzamide] the pIC50 was 8.83.
`CC(C)n1cc(-c2cnc(N)c(-c3ccc(C(=O)N[C@H](CO)c4cccc(F)c4)c(F)c3)c2)cn1` [Example 292, (S)-4-(2-amino-5-(1-isopropyl-1H-pyrazol-4-yl)pyridin-3-yl)-2-fluoro-N-(1-(3-fluorophenyl)-2-hydroxyethyl) benzamide] gave a pIC50 of 8.55.
`Cc1c(-c2cnc(N)c(-c3ccc(C(=O)N[C@H](CO)c4cccc(F)c4)c(F)c3)c2)cnn1C` [Example 295, (S)-4-(2-amino-5-(1,5-dimethyl-1H-pyrazol-4-yl)pyridin-3-yl)-2-fluoro-N-(1-(3-fluorophenyl)-2-hydroxyethyl) benzamide] was tested, and the pIC50 was 9.23.
`CCn1cc(-c2cnc(N)c(-c3ccc(C(=O)N[C@H](CO)c4cccc(S(C)(=O)=O)c4)c(F)c3)c2)cn1` [Example 296, (S)-4-(2-amino-5-(1-ethyl-1H-pyrazol-4-yl)pyridin-3-yl)-2-fluoro-N-(2-hydroxy-1-(3-(methylsulfonyl)phenyl)ethyl) benzamide] gave a pIC50 of 8.97.
In the case of `CCn1cc(-c2cnc(N)c(-c3ccc(C(=O)N[C@H](CO)c4cccc(F)c4)c(F)c3)c2)cn1` [Example 298, (S)-4-(2-amino-5-(1-ethyl-1H-pyrazol-4-yl)pyridin-3-yl)-2-fluoro-N-(1-(3-fluorophenyl)-2-hydroxyethyl) benzamide], the pIC50 was 8.71.
`CCn1cc(-c2cnc(N)c(-c3ccc(C(=O)N[C@H](C)c4cccc(S(C)(=O)=O)c4)c(F)c3)c2)cn1` [Example 299, (R)-4-(2-amino-5-(1-ethyl-1H-pyrazol-4-yl)pyridin-3-yl)-2-fluoro-N-(1-(3-(methylsulfonyl)phenyl)ethyl) benzamide] showed a pIC50 of 8.45.
Work on `C[C@@H](NC(=O)c1ccc(-c2cc(-c3cnnn3C)cnc2N)cc1F)c1cccc(Cl)c1` [Example 303, (R)-4-(2-amino-5-(1-methyl-1H-1,2,3-triazol-5-yl)pyridin-3-yl)-N-(1-(3-chlorophenyl)ethyl)-2-fluorobenzamide] yielded a pIC50 of 9.66.
For `Cn1nncc1-c1cnc(N)c(-c2ccc(C(=O)N[C@H](CO)c3ccccc3)c(F)c2)c1` [Example 304, (S)-4-(2-amino-5-(1-methyl-1H-1,2,3-triazol-5-yl)pyridin-3-yl)-2-fluoro-N-(2-hydroxy-1-phenylethyl) benzamide], the pIC50 was 8.60.
`Cn1nncc1-c1cnc(N)c(-c2ccc(C(=O)N[C@H](CO)c3cccc(F)c3)c(F)c2)c1` [Example 305, (S)-4-(2-amino-5-(1-methyl-1H-1,2,3-triazol-5-yl)pyridin-3-yl)-2-fluoro-N-(1-(3-fluorophenyl)-2-hydroxyethyl) benzamide] was tested, and the pIC50 was 8.72.
For `Cc1cccc([C@@H](CO)NC(=O)c2ccc(-c3cc(-c4cnnn4C)cnc3N)cc2F)c1` [Example 306, (S)-4-(2-amino-5-(1-methyl-1H-1,2,3-triazol-5-yl)pyridin-3-yl)-2-fluoro-N-(2-hydroxy-1-(m-tolyl)ethyl) benzamide], the pIC50 was 9.42.
For `Cn1cc(-c2cnc(N)c(-c3ccc(C(=O)NC(CN)c4cccc(Cl)c4)c(F)c3)c2)cn1` (centres unmarked) [Example 307, N-(2-amino-1-(3-chlorophenyl)ethyl)-4-(2-amino-5-(1-methyl-1H-pyrazol-4-yl)pyridin-3-yl)-2-fluorobenzamide], the pIC50 was 9.70.
Work on `CS(=O)(=O)c1cc(F)cc(CNC(=O)c2ccc(-c3nc(C4CCOCC4)cnc3N)cc2F)c1` [Example 310, 4-(3-amino-6-(tetrahydro-2H-pyran-4-yl)pyrazin-2-yl)-2-fluoro-N-(3-fluoro-5-(methylsulfonyl)benzyl)benzamide] yielded a pIC50 of 9.62.
For `CCn1cc(-c2cnc(N)c(-c3ccc(C(=O)N[C@H](C)c4cc(F)cc(S(C)(=O)=O)c4)c(F)c3)c2)cn1` [Example 313, (R)-4-(2-amino-5-(1-ethyl-1H-pyrazol-4-yl)pyridin-3-yl)-2-fluoro-N-(1-(3-fluoro-5-(methylsulfonyl)phenyl)ethyl) benzamide], the pIC50 was 9.21.
For `CCn1cc(-c2cnc(N)c(-c3ccc(C(=O)N[C@H](CO)c4ccccc4)c(F)c3)c2)cn1` [Example 314, (S)-4-(2-amino-5-(1-ethyl-1H-pyrazol-4-yl)pyridin-3-yl)-2-fluoro-N-(2-hydroxy-1-phenylethyl) benzamide], the pIC50 was 8.83.
`Nc1ncc(C2CNC(=O)C2)cc1-c1ccc(C(=O)NCc2ccccc2)c(F)c1` (centres unmarked) [Example 316, 4-(2-amino-5-(5-oxopyrrolidin-3-yl)pyridin-3-yl)-N-benzyl-2-fluorobenzamide] gave a pIC50 of 6.48.
Compound `Cc1ccnc(CNC(=O)c2ccc(-c3cc(C4CCOCC4)cnc3N)cc2F)n1` [Example 317, 4-(2-amino-5-(tetrahydro-2H-pyran-4-yl)pyridin-3-yl)-2-fluoro-N-((4-methylpyrimidin-2-yl)methyl) benzamde] has a pIC50 of 5.87.
For `NC(=O)c1ccc(-c2nc(C3CCOCC3)cnc2N)cc1F` [Example 319, 4-(3-amino-6-(tetrahydro-2H-pyran-4-yl)pyrazin-2-yl)-2-fluorobenzamide], the pIC50 was 6.82.
With `CNC(=O)c1ccc(-c2nc(C3CCOCC3)cnc2N)cc1F` [Example 320, 4-(3-amino-6-(tetrahydro-2H-pyran-4-yl)pyrazin-2-yl)-2-fluoro-N-methylbenzamide] the pIC50 was 6.45.
`Nc1ncc(C2CCOCC2)nc1-c1ccc(C(=O)N2CCOC[C@@H]2c2ccccc2)cc1` [Example 322, (S)-(4-(3-amino-6-(tetrahydro-2H-pyran-4-yl)pyrazin-2-yl)phenyl)(3-phenylmorpholino) methanone] gave a pIC50 of 7.04.
With `CS(=O)(=O)c1cccc(CNC(=O)c2ccc(-c3nc(C4CCOCC4)cnc3N)cc2)c1` [Example 323, 4-(3-amino-6-(tetrahydro-2H-pyran-4-yl)pyrazin-2-yl)-N-(3-(methylsulfonyl)benzyl)benzamide] the pIC50 was 8.48.
In the case of `NC[C@@H](NC(=O)c1ccc(-c2nc(C3CCOCC3)cnc2N)cc1F)c1ccccc1` [Example 326, (S)-N-(2-amino-1-phenylethyl)-4-(3-amino-6-(tetrahydro-2H-pyran-4-yl)pyrazin-2-yl)-2-fluorobenzamide], the pIC50 was 9.60.
For `Nc1ncc(C2CCOCC2)nc1-c1ccc(C(=O)N[C@H](CF)c2ccccc2)cc1` [Example 327, (S)-4-(3-amino-6-(tetrahydro-2H-pyran-4-yl)pyrazin-2-yl)-N-(2-fluoro-1-phenylethyl) benzamide], the pIC50 was 7.27.
Work on `Nc1ncc(C2CCC3(CC2)OCCO3)nc1-c1ccc(C(=O)NCc2ccccc2)c(F)c1` [Example 413, 4-(3-amino-6-(1,4-dioxaspiro[4.5]decan-8-yl)pyrazin-2-yl)-N-benzyl-2-fluorobenzamide] yielded a pIC50 of 6.69.
Work on `C[C@@H](NC(=O)c1ccc(-c2nc([C@H]3CC[C@H](O)CC3)cnc2N)cc1F)c1cccc(Cl)c1` [Example 415, 4-(3-amino-6-((1r,4R)-4-hydroxy-cyclohexyl)pyrazin-2-yl)-N-((R)-1-(3-chlorophenyl)ethyl)-2-fluorobenzamide] yielded a pIC50 of 8.77.
Work on `C[C@@H](NC(=O)c1ccc(-c2nc([C@H]3CC[C@@H](O)CC3)cnc2N)cc1F)c1cccc(Cl)c1` [Example 416, 4-(3-amino-6-((1s,4S)-4-hydroxy-cyclohexyl)pyrazin-2-yl)-N-((R)-1-(3-chlorophenyl)ethyl)-2-fluorobenzamide] yielded a pIC50 of 8.25.
In the case of `C[C@@H](NC(=O)c1ccc(-c2nc([C@H]3CC[C@H](O)CC3)cnc2N)cc1F)c1cc(F)cc(S(C)(=O)=O)c1` [Example 419, 4-(3-amino-6-((1r,4R)-4-hydroxy-cyclohexyl)pyrazin-2-yl)-2-fluoro-N-((R)-1-(3-fluoro-5-(methylsulfonyl)phenyl)ethyl) benzamide], the pIC50 was 9.07.
`C[C@@H](NC(=O)c1ccc(-c2nc([C@H]3CC[C@@H](O)CC3)cnc2N)cc1F)c1cc(F)cc(S(C)(=O)=O)c1` [Example 420, 4-(3-amino-6-((1s,4S)-4-hydroxy-cyclohexyl)pyrazin-2-yl)-2-fluoro-N-((R)-1-(3-fluoro-5-(methylsulfonyl)phenyl)ethyl) benzamide] was tested, and the pIC50 was 8.71.

What follows are compounds tested against T1, activated ERK2 (assay: Activated ERK2 (20 pM) Kinase Assay (AlphaScreen, ERKtide phosphorylation)). Conditions: 0.02 nM ERK2, 400 nM ERKtide peptide, 35 μM ATP, 30 min preincubation.
Format: biochemical
Method in brief: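 AlphaScreen read-out (anti-phospho-EGFR Thr669 antibody, protein A acceptor/streptavidin donor beads) of ERKtide (400 nM) phosphorylation by 20 pM activated ERK2 at 35 μM ATP.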
`C[C@@H](NC(=O)c1ccc(-c2cc(C3CCNC(=O)C3)cnc2N)cc1F)c1cccc(Cl)c1` (mixture of isomers) [Example 120, 4-(2-amino-5-(2-oxopiperidin-4-yl)pyridin-3-yl)-N-((R)-1-(3-chlorophenyl)ethyl)-2-fluorobenzamide] was tested, and the pIC50 was 9.27.
